Broadly, the viability is a read-out of living cells in per cent, often relative to untreated cells.

One data set in a line: in vitro. Particulars: human, hela cells, % viability.
On to `COc1ccc(-c2cc(C(=O)N3CCN(C(C)=O)CC3)cnc2-c2ccccc2)cn1` [CBK036637], for which the viability at 28.5 h, 10 µM was found to be 101%. Take `CN(CC(=O)O/N=C(\N)c1ccccn1)S(=O)(=O)c1ccc(Br)cc1` [CBK268617]: the viability at 28.5 h, 10 µM is 96.9%. Consider `O=C(NC1CCCCC1)C1CCC1` [CBK011511], for which the viability at 28.5 h, 10 µM was determined as 96.5%. The same measure, in the same setting: to `Cc1cc2nc(/C(C#N)=C/c3ccncc3)[nH]c2cc1C` [CBK268745] belongs 87.7%; to `NS(=O)(=O)c1ccc(C(=O)N2CCC3(CCN(C(=O)c4ccoc4)C3)C2)cc1` (stereo not drawn) [CBK131736], 95.2%.

Turning to `O=c1c2c([nH]c3nc(COc4ccccc4)nn13)CCC2` [CBK288188], the viability at 28.5 h, 10 µM is 98%.

For the compound `COc1cccc(C(=O)Nc2nc(-c3ccc(C(C)C)cc3)cs2)c1` [CBK101110], the viability at 28.5 h, 10 µM stood at 87%.

Consider `COCC1CCCN(S(=O)(=O)c2cnc3ccsc3c2)C1` (stereo not drawn) [CBK306397], for which the viability at 28.5 h, 10 µM amounted to 66.6%. On the same count and under the same terms, to `CCN(CC)C(=O)C1CCCN(C(=O)NCc2cnc(C)cn2)C1` (stereo not drawn) [CBK156122] belongs 101%.

Consider `COc1ccc(-c2ccccc2NC(=O)C2CC(=O)N(Cc3cccc(F)c3)C2)cc1` (stereo not drawn) [CBK285937], for which the viability at 28.5 h, 10 µM stood at 89.3%. Same read-out and setting: to `CN(C)c1nc(N(C)C)nc(N(C#N)S(=O)(=O)c2ccccc2Cl)n1` [CBK269036] belongs 88.3%. On the same count and under the same terms, then `CC(C)c1nnc(NS(=O)(=O)Cc2ccccc2)s1` [CBK045540], with 93%; and `COc1cc(CN2CCN(c3ccccn3)CC2)cc(Br)c1O` [CBK025770], with 91.9%; and `CCN(CC)CCNC(=O)/C(=N\O)c1ccccc1` [CBK288408], with 106%. With `Cc1nccn1CCN(C)C(=O)C1CC2C=CC1C21CC1` (stereo not drawn) [CBK282084], the viability at 28.5 h, 10 µM worked out at 91.7%. Still for that read-out and setting: to `Cn1c(SCc2ccc([N+](=O)[O-])cc2)nnc1-c1ccc(NC(=O)c2ccccc2Cl)cc1` [CBK265001] belongs 111%; to `CCC1CCCCN1C(=O)c1cncc(Br)c1` (stereo not drawn) [CBK076699], 107%. Still for that read-out and setting: to `CC(C)CC(NC(=O)Cc1cccc(O)c1)c1ncnn1C` (stereo not drawn) [CBK307050] belongs 105%; to `Cc1nc(-c2ccco2)nc2sc(C(=O)NCc3nnc4ccccn34)c(C)c12` [CBK297773], 107%; to `CCc1c(S(=O)(=O)CCC(=O)OC)c2ccccc2[n+]([O-])c1C` [CBK155469T], 91.4%.

Take `CC(C)Oc1ccc(C(=O)N2CCN(c3ccccc3)CC2)cc1` [CBK305847]: the viability at 28.5 h, 10 µM was found to be 83.5%. Same read-out and setting: then `O=C(Nc1ccc(S(=O)(=O)NCc2ccccc2)cc1)Nc1ccc2c(c1)OCO2` [CBK268186], with 95.1%. Same read-out and setting: then `COc1ccc2nc(C)c(CCC(=O)O)c(O)c2c1` [CBK286955], with 98.8%. Still for that read-out and setting: to `CCONC(=O)c1cc(-c2ccccc2C)nc2c1cnn2C(C)C` [CBK304048] belongs 95.5%; to `O=C(Nc1nccc(N2CCNCC2)n1)c1cccs1` [CBK004305T], 77.7%; to `O=C(NCCCO)c1ccc(/C=N/O)nc1` [CBK264560], 97.7%. Consider `COc1ccccc1NC(=O)c1[nH]nc(O)c1Cc1c(Cl)cccc1Cl` [CBK107846], for which the viability at 28.5 h, 10 µM was 90.2%. `Cc1nc(C)c(-c2csc(Nc3ccc(C(=O)O)c(O)c3)n2)s1` [CBK267263]: the viability at 28.5 h, 10 µM amounted to 101%. In the case of `Cc1csc(C2CN(Cc3ccn(C)c(=O)c3)CCO2)n1` (stereo not drawn) [CBK305763], the viability at 28.5 h, 10 µM amounted to 91.4%. Same read-out and setting: then `CCOc1ccccc1-n1c(CCC(=O)O)ccc1-c1cccs1` [CBK264794], with 105%; and `CC(=O)N(C)Cc1cccc(Nc2ncnc3c2cnn3CCC#N)c1` [CBK306232], with 88.5%; and `CC(=O)NC1(c2ccccc2)CCN(Cc2ccnn2C)CC1` [CBK281805], with 87.8%.

On to `Cc1c(C(=O)C2=C(O)C(=O)N(CCN3CCOCC3)C2c2ccccn2)cnn1-c1ccccc1` (stereo not drawn) [CBK266493], for which the viability at 28.5 h, 10 µM was 112%.

On to `CSCCCNC(=O)N1CCN(c2cc(C(F)(F)F)ccn2)CC1` [CBK156433], for which the viability at 28.5 h, 10 µM came to 92.3%.

Regarding `CCCSc1nnc(-c2c(Cl)c(CC)nn2C)s1` [CBK026135], the viability at 28.5 h, 10 µM came out at 104%. Still for that read-out and setting: to `O=C(C1=C(O)C(=O)N(CCN2CCOCC2)C1c1ccccn1)c1cc2ccccc2o1` (stereo not drawn) [CBK269576] belongs 107%; to `O=C1CCC(=O)N1CCN1C(=O)C2(CC(=O)N(CCC(F)(F)F)C2=O)c2ccccc21` (stereo not drawn) [CBK076031], 105%; to `OCC1CCCN1c1cncc(-c2cccnc2)n1` (stereo not drawn) [CBK065439], 100%.

Consider `O=C(c1ccc(N2CCSCC2)nc1)N1CCC(N2CCOCC2)CC1` [CBK306582], for which the viability at 28.5 h, 10 µM is 78.6%. On the same count and under the same terms, then `O=c1[nH]c(SCc2c(Cl)cccc2Cl)nc2ccnn12` [CBK116145], with 92.8%. As for `COC(=O)CCC(=O)N1CCc2c([nH]c3ccccc23)C12CCN(CCCc1ccccc1OC)C2` (stereo not drawn) [CBK074952], the viability at 28.5 h, 10 µM was determined as 93.9%. Still for that read-out and setting: then `CCOC(=O)NC(Nc1nc2ccccc2s1)(C(F)(F)F)C(F)(F)F` [CBK008913], with 93.6%; and `Cc1cc(Br)cc(C)c1OCC(=O)NNC(=O)Cc1cccc2ccccc12` [CBK267151], with 95.2%. On the same count and under the same terms, then `COc1ccc(Cl)cc1N1CCN(Cc2ccc(OC(F)(F)F)cc2)CC1` [CBK126405], with 104%.

With `O=c1/c(=C/c2cccnc2)sc2n1CN(c1cccc([N+](=O)[O-])c1)CN=2` [CBK264401], the viability at 28.5 h, 10 µM was 76.9%. For the compound `COc1ccc(-c2csc(CCNC(=O)Cc3c[nH]c(=O)[nH]c3=O)n2)cc1` [CBK285670], the viability at 28.5 h, 10 µM turned out to be 92.4%. The same measure, in the same setting: then `Cc1cc(-c2c(C)n(-c3ccccc3)[nH]c2=O)n2ncnc2n1` [CBK288441], with 89.4%.

As to `Cc1ccc(S(=O)(=O)CC(=O)N2CCCC3(CCN(C(=O)c4cc(F)c(F)cc4F)C3)C2)cc1` (stereo not drawn) [CBK131558], the viability at 28.5 h, 10 µM came out at 99%. The same measure, in the same setting: then `CN(C)c1ccc(C(=O)N2CCC(c3cc4ncccc4[nH]3)CC2)cc1` [CBK284459], with 93.3%; and `NC(=O)NC(CC(=O)N1CCCC1c1ccncc1)c1cccc(Br)c1` (stereo not drawn) [CBK306345], with 92.7%. `COc1ccccc1N1CCN(c2c(C)c(C)nc3cc(-c4nccn4C)nn23)CC1` [CBK286182]: the viability at 28.5 h, 10 µM is 87.5%. Consider `O=C(CSc1cccs1)Nc1nccs1` [CBK019601], for which the viability at 28.5 h, 10 µM is 88.7%. Consider `O=C(Nc1ccccc1N1CCOCC1)c1ccc(OCc2ccccc2)cc1` [CBK265992], for which the viability at 28.5 h, 10 µM turned out to be 96.3%. Still for that read-out and setting: to `CCn1c(Cc2ccccc2)nnc1SCC(=O)Nc1cc(Cl)ccc1O` [CBK268689] belongs 104%; to `NC(=O)C1CCN(CC(O)COc2ccc(-c3ccccc3)cc2)CC1` (stereo not drawn) [CBK269528], 89.9%.

On to `O=C(NC(c1ccc(F)cc1)c1cnccn1)C1CCN(C(=O)c2ccco2)CC1` (stereo not drawn) [CBK059956], for which the viability at 28.5 h, 10 µM was determined as 94.3%.

The data set is the same for the next values; noted with them: human, hela cells, % viability, bulk resorufin, single well.
In the case of `CN1C(=O)C(=Cc2ccc(-c3cccc([N+](=O)[O-])c3)o2)C(=O)N(C)C1=S` [CBK263903], the viability at 28.5 h, 10 µM came out at 95.1%.

These data come from paper PMC12040169 (PLOS Biology, 2025).
